Experimental findings from ChEMBL document CHEMBL1212732, “Conformational inhibition of the hepatitis C virus internal ribosome entry site RNA” (Nat Chem Biol, 2009) are described below.

Active and inactive are the calls of the source. The calls are words filed in the database; no cut-off is given here.

Data set [1] deals with Internal ribosome entry site (IRES). Nature of the data set: Binding affinity to HCV 2AP54-labelled IRES subdomain 2a RNA in presence of 1 mM Mg2+ by FRET assay. The class given is nucleic-acid assay, Hepacivirus hominis.
In data set [2] the test system is Internal ribosome entry site (IRES). The data set can be described thus: Binding affinity to HCV 2AP54-labelled IRES subdomain 2a RNA in presence of Mg2+ by FRET assay. The settings on record: Hepacivirus hominis. Type of data set: nucleic-acid assay.
For data set [3], the target named is Internal ribosome entry site (IRES). Nature of the data set: Binding affinity to HCV 2AP54-labelled IRES subdomain 2a RNA in presence of 0.3 mM Mg2+ by FRET assay. Type of data set: nucleic-acid assay, Hepacivirus hominis.
Data set [4] relates to Internal ribosome entry site (IRES). The data set can be described thus: Binding affinity to HCV 2AP54-labelled IRES subdomain 2a RNA in presence of Mg2+ by FRET assay in presence of eukaryotic tRNA. The class given is nucleic-acid assay. Conditions: Hepacivirus hominis.
Data set [5] has the same test system. Nature of the data set: Binding affinity to HCV Cy3/Cy5-labelled IRES subdomain 2a RNA by FRET assay. Conditions: Hepacivirus hominis. Type of data set: nucleic-acid assay.
Data set [6] deals with Internal ribosome entry site (IRES). Nature of the data set: Binding affinity to HCV 2AP54-labelled IRES subdomain 2a RNA A54G mutant in presence of 1 mM Mg2+ by FRET assay. Type of data set: nucleic-acid assay, Hepacivirus hominis.
For data set [7] the target is unchanged. Nature of the data set: Binding affinity to HCV 2AP54-labelled IRES subdomain 2a RNA C55U mutant in presence of 1 mM Mg2+ by FRET assay. Type of data set: nucleic-acid assay, Hepacivirus hominis.
The target is the same in data set [8]. The data set can be described thus: Binding affinity to HCV 2AP54-labelled IRES subdomain 2a RNA C55A mutant in presence of 1 mM Mg2+ by FRET assay. The class given is nucleic-acid assay, Hepacivirus hominis.
The target is the same in data set [9]. The data set can be described thus: Binding affinity to HCV 2AP54-labelled IRES subdomain 2a RNA U56G/A57U mutant in presence of 1 mM Mg2+ by FRET assay. The class given is nucleic-acid assay, Hepacivirus hominis.
Data set [10] shares this target. Nature of the data set: Binding affinity to HCV 2AP54-labelled IRES subdomain 2a RNA A57U mutant in presence of 1 mM Mg2+ by FRET assay. Type of data set: nucleic-acid assay, Hepacivirus hominis.
Data set [11] has the same target. The data set can be described thus: Binding affinity to HCV 2AP54-labelled IRES subdomain 2a RNA C58A mutant in presence of 1 mM Mg2+ by FRET assay. The class given is nucleic-acid assay, Hepacivirus hominis.
Data set [12] has as its system Hepatitis C virus. The data set can be described thus: Inhibition of HCV 1b replicon translation in human HuH7 cells transfected with BM4-5 FEO HCV replicon RNA after 4 hrs by luciferase reporter assay. Type of data set: functional, organism-based, Hepacivirus hominis. Conditions: genotype 1b, Huh-7, 4 h. For orientation: In antiviral work, replicon cells carry a viral genome segment that copies itself.

The test system of data set [13] is Hepatitis C virus. Nature of the data set: Inhibition of HCV 1b replicon translation in human HuH7 cells transfected with BM4-5 FEO HCV replicon RNA after 8 hrs by luciferase reporter assay. Conditions: genotype 1b, Huh-7, 8 h. The class given is functional, organism-based, Hepacivirus hominis.
Data set [14] has as its system Hepatitis C virus. The data set can be described thus: Inhibition of HCV 1b replicon translation in human HuH7 cells transfected with BM4-5 FEO HCV replicon RNA A57U mutant by luciferase reporter assay relaitv to wild type. The class given is functional, Hepacivirus hominis, genotype 1b, Huh-7.
For data set [15], the system named is Hepatitis C virus. Nature of the data set: Inhibition of HCV 1b replicon translation in human HuH7 cells transfected with BM4-5 FEO HCV replicon RNA after 48 hrs by luciferase reporter assay. Type of data set: functional, organism-based, Hepacivirus hominis. Conditions: genotype 1b, Huh-7, 48 h.
A short description of data set [16]: Cytotoxicity against human HuH7 cells at 0.25-25 uM after 48 hrs by colorimetric viability assay. The settings on record: huh-7, 48 h. The class given is cell-based.
The test system of data set [17] is Hepacivirus hominis. The data set can be described thus: Inhibition of HCV NS5B RNA dependent RNA polymerase after 24 mins.
For data set [18], the system named is Hepacivirus hominis. The data set can be described thus: Inhibition of HCV NS5B RNA dependent RNA polymerase after 60 mins.
The target of data set [19] is Internal ribosome entry site (IRES). The data set can be described thus: Binding affinity to HCV 2AP54-labelled IRES subdomain 2a RNA by mass spectrometry. Type of data set: nucleic-acid assay, Hepacivirus hominis.

The term EC50 denotes the concentration giving half of the maximal effect. Take `CN(C)CC(CO)Cn1c(N)nc2ccc3c(c21)CC(CO)CO3` (stereo not given): the EC50 in data set [1] came to 90000 nM.

Usually IC50 stands for the concentration needed to halve the response being measured. The low end stands for greater potency in that assay, the high end for weaker potency in that assay. In general, Kd refers to the concentration at which binding is half-saturated. Low readings indicate higher affinity, high ones lower affinity. In the case of `CN(C)CC1COc2ccc3nc4n(c3c2C1)CC(CN(C)C)CN4` (stereo not given), the Activity result is “Dose-dependent effect” in data set [2] and “Toxic” in data set [16]. Also, the 50% effective concentration (EC50) in data set [3] is 260 nM; in data set [1], 600 nM; in data set [6] it was 490 nM; in data set [7], 320 nM; in data set [8], 650 nM; in data set [9] it was 4100 nM. For the same compound, the EC50 in data set [10] amounted to 4200 nM; in [11], 760 nM. Further, in data set [4], the result was Active. The outcome in [5] was inactive. Also, the half-maximal inhibitory concentration (IC50) was determined as 4000 nM with Hepatitis C virus [12], 9500 nM in the data set with Hepatitis C virus [13] and 2000 nM with Hepatitis C virus [15]. Further, the “inhibition (INH)” value in the data set on Hepatitis C virus [14] is 15%. In addition, the inhibition entry in the data set on Hepacivirus hominis [17] and in the data set on Hepacivirus hominis [18] was “Active” throughout. The same compound registered a Kd in data set [19] of 720 nM.
